Measurements from ChEMBL document CHEMBL5137071, “Convenient Diaryl Ureas as Promising Anti-pseudo-allergic Agents” (J Med Chem, 2022).
Activity calls are given as the source filed them. No cut-off for these calls is given here.

Key:
[1] = test system: LAD2; assay: Cytotoxicity against human LAD2 cells assessed as reduction in cell viability at 10 uM incubated for 24 hrs by Cell Counting Kit assay; type: toxicity, cell-based; settings: lad2, 24 h
[2] = test system: LAD2; assay: Anti-pseudo allergic activity in human LAD2 cells assessed as inhibition of C48/80-induced beta-hexosaminidase release; type: functional, cell-based
[3] = test system: Mus musculus; assay: Anti-pseudo allergic activity against C48/80-induced passive cutaneous anaphylaxis mouse model assessed as reduction in serum histamine level at 1 to 10 mg/kg followed by C48/80 administration intravenously after 30 mins post-compound administration measured every 5 mins for 30 mins by LC/MS/MS analysis; type: functional, organism-based; settings: dose 1-10 mg/kg, route iv
[4] = test system: HEK293; assay: Anti-pseudo allergic activity in HEK293 cells assessed as prevention of calcium entry in presence of emodin at 0 to 10 uM; type: functional, cell-based; settings: Homo sapiens, dose 0-10 µM
[5] = test system: HEK293; assay: Anti-pseudo allergic activity in HEK293 cells expressing H1R assessed as inhibition of histamine induced calcium release at 0 to 10 uM; type: functional, cell-based; settings: Homo sapiens, dose 0-10 µM
[6] = test system: LAD2; assay: Anti-pseudo allergic activity in human LAD2 cells assessed as inhibition of C48/80-induced beta-hexosaminidase release at 0.1 to 10 uM pretreated for 30 mins followed by C48/80 addition measured after 30 mins; type: functional, cell-based; settings: dose 0.1-10 µM, time 1.0 hrs
[7] = test system: Mus musculus; assay: Anti-pseudo allergic activity against C48/80-induced passive cutaneous anaphylaxis mouse model assessed as body temperature loss at 10 mg/kg followed by C48/80 administration intravenously after 30 mins post-compound administration measured every 5 mins for 30 mins; type: functional, organism-based; settings: route iv, time 1.0 hrs
[8] = test system: Mus musculus; assay: Anti-pseudo allergic activity against C48/80-induced passive cutaneous anaphylaxis mouse model assessed as decrease in degranulation level at 0 to 1 mg/kg followed by C48/80 addition measured after 45 mins by FITC-avidin staining based laser scanning confocal microscopy; type: functional, organism-based; settings: dose 0-1 mg/kg
[9] = test system: Mus musculus; assay: Anti-pseudo allergic activity against C48/80-induced passive cutaneous anaphylaxis C57 mouse model assessed as reduction in paw thickness rate at 0 to 1 mg/kg followed by C48/80 intravenously administration after 15 mins by Evans blue method; type: functional, organism-based; settings: dose 0-1 mg/kg, route iv
[10] = test system: Mus musculus; assay: Anti-pseudo allergic activity against passive cutaneous anaphylaxis-induced C57 mouse model assessed as reduction in C48/80-induced extravasation rate at 0 to 1 mg/kg followed by C48/80 intravenously administration after 15 mins by Evans blue method; type: functional, organism-based; settings: dose 0-1 mg/kg, route iv
[11] = test system: Mus musculus; assay: Anti-pseudo allergic activity against C48/80-induced passive cutaneous anaphylaxis mouse model assessed as increase in local tissue edema vascular permeability at 1 to 10 mg/kg followed by C48/80 administration after 30 mins post-compound administration measured every 5 mins for 30 mins; type: functional, organism-based; settings: dose 1-10 mg/kg
[12] = test system: Mus musculus; assay: Anti-pseudo allergic activity against passive cutaneous anaphylaxis-induced mouse model assessed as systemic symptoms at 1 to 10 mg/kg followed by C48/80 administration after 30 mins post-compound administration measured every 5 mins for 30 mins; type: functional, organism-based; settings: dose 1-10 mg/kg
[13] = test system: LAD2; assay: Anti-pseudo allergic activity in human LAD2 cells assessed as inhibition of C48/80-induced histamine release at 0.1 to 10 uM pretreated for 30 mins followed by C48/80 addition measured after 30 mins by HPLC-MS analysis; type: functional, cell-based; settings: dose 0.1-10 µM
[14] = test system: LAD2; assay: Anti-pseudo allergic activity in human LAD2 cells assessed as decrease in C48/80-induced calcium intracellular mobilization at 10 uM by fluorescence based assay; type: functional, cell-based
[15] = molecular target: T1, Mas-related G-protein coupled receptor member X2 (Homo sapiens) (UniProt Q96LB1); assay: Antagonist activity at MRGPRX2 (unknown origin) expressed in HEK293 cells assessed as inhibition of calcium mobilization at upto 10 uM; type: functional, cell-based; settings: filed as antagonist
T1 sequence (whole entry): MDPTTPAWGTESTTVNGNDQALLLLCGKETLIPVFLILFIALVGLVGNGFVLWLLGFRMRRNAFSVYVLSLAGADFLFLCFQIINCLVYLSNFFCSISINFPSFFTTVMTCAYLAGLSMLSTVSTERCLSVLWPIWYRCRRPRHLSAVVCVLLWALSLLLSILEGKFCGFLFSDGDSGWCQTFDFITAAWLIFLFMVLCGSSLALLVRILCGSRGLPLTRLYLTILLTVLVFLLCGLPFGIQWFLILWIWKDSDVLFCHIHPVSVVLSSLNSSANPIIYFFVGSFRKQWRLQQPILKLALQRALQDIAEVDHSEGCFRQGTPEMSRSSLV

Compound | IC50 [2] [µM] | Activity [15] | Activity [1] | Activity [3] | Activity [4] | Activity [5] | Activity [6] | Activity [7] | Activity [8] | Activity [9] | Activity [10] | Activity [11] | Activity [12] | inhibition [13] | Activity [14]
O=C(Nc1ccc(Br)cc1)Nc1ccc(Br)cc1 | – | – | Non-Toxic | – | – | – | – | – | – | – | – | – | – | – | –
O=C(Nc1ccc(F)cc1)Nc1cc(Br)cc(C(F)(F)F)c1 | – | – | Non-Toxic | – | – | – | – | – | – | – | – | – | – | – | –
O=C(Nc1ccc(F)cc1)Nc1ccc(F)cc1 | – | – | Non-Toxic | – | – | – | – | – | – | – | – | – | – | – | –
O=C(Nc1ccc(C(F)(F)F)cc1Cl)Nc1ccc(C(F)(F)F)cc1Cl | 2.16 | – | Non-Toxic | – | – | – | Active | – | – | – | – | – | – | Active | –
O=C(Nc1ccc(F)cc1)Nc1ccc(C(F)(F)F)cc1 | 1.64 | – | Non-Toxic | – | – | – | Active | – | – | – | – | – | – | Active | –
O=C(Nc1ccc(Br)cc1)Nc1ccc(C(F)(F)F)cc1Cl | 2.51 | – | Non-Toxic | – | – | – | Active | – | – | – | – | – | – | Active | –

Second part, led by results:

IC50 [2] [µM] | Activity [15] | Compound | Activity [1] | Activity [3] | Activity [4] | Activity [5] | Activity [6] | Activity [7] | Activity [8] | Activity [9] | Activity [10] | Activity [11] | Activity [12] | inhibition [13] | Activity [14]
0.79 | Active | O=C(Nc1ccc(Cl)c(C(F)(F)F)c1)Nc1ccc(Cl)c(C(F)(F)F)c1 | Non-Toxic | Active | Active | Active | Active | Active | Active | Active | Active | Active | Active | Active | Active
0.8 | – | O=C(Nc1ccc(C(F)(F)F)cc1)Nc1ccc(C(F)(F)F)cc1Cl | Non-Toxic | – | – | – | Active | – | – | – | – | – | – | Active | –
1.4 | – | O=C(Nc1ccc(F)cc1)Nc1ccc(C(F)(F)F)cc1Cl | Non-Toxic | – | – | – | Active | – | – | – | – | – | – | Active | –
1.1 | – | O=C(Nc1ccc(Cl)c(C(F)(F)F)c1)Nc1ccc(C(F)(F)F)cc1Cl | – | – | – | – | Active | – | – | – | – | – | – | Active | –
1.59 | – | O=C(Nc1cccc(C(F)(F)F)c1)Nc1cccc(C(F)(F)F)c1 | Non-Toxic | – | – | – | Active | – | – | – | – | – | – | Active | –
0.97 | Active | O=C(Nc1ccc(C(F)(F)F)cc1)Nc1ccc(C(F)(F)F)cc1 | Non-Toxic | Active | Active | Active | Active | Active | Active | Active | Active | Active | Active | Active | Active
0.62 | Active | O=C(Nc1ccc(C(F)(F)F)cc1)Nc1cc(Br)cc(C(F)(F)F)c1 | Non-Toxic | Active | Active | Active | Active | Active | Active | Active | Active | Active | Active | Active | Active
